# Data from patent US11149028B2, “Methods for treating melanoma using small molecules” (NOVA SOUTHEASTERN UNIVERSITY, priority 2016, dated 2021).
# Entries after “also recorded” stand apart in the source; their conditions may differ. Read-outs that look alike come from different tables or passages of the source.
# Experiments:
# M14 cells = assay: CellTiter-Glo viability assay, M14 melanoma cells (library screening, individual compounds, time course); format: cell-based, human; settings: for IC50: Homo sapiens, M14
# Experimental: (§1) Mixture libraries were solubilized in 3% DMSO/H2O and added to polypropylene 384 well plates (Greiner cat #781280). 1,250 CHO-K1, A549, or M14 cells were plated in 384-well plates in 5 μL of serum-free media (F12 for CHO-K1 and A549, DMEM for M14). Test compounds and gefitinib (pharmacological assay control) were prepared as 10-point, 1:3 serial dilutions starting at 300 then added to the cells (5 μL per well) using the Biomek NX^P. Plates were incubated for 72 h at 37° C., 5% CO2 and 95% RH. After incubation, 5 μL of CellTiter-Glo® (Promega cat #: G7570) were added to each well, and incubated for 15 min at room temperature. Luminescence was recorded using a Biotek Synergy H4 multimode microplate reader. Viability was expressed as a percentage relative to wells containing media only (0%) and wells containing cells treated with 1% DMSO only (100%). Three parameters were calculated on a per-plate basis: (a) the signal-to-background ratio (SB); (b) the coefficient for variation [CV; CV=(standard deviation/mean)×100)] for all compound test wells; and (c) the Z′-factor (18). The IC50 value of the pharmacological control (gefitinib, LC Laboratories #G-4408) was also calculated to ascertain the assay robustness. Time course viability assay was performed as described for library screening with luminescence measurements performed at 4, 24, 48, and 72 h.
# [1] = test system: A549 non-small cell lung cancer cell line; assay: CellTiter-Glo viability assay, A549 cells; format: cell-based; settings: individual compounds
# Experimental: as §1
# CHO-K1 cells = assay: CellTiter-Glo viability assay, CHO-K1 healthy control cells; format: cell-based; settings: individual compounds
# Experimental: as §1
# MDA-MB-231 cell line = assay: Viability of MDA-MB-231 breast cancer cells; format: cell-based
# [2] = test system: MAPK/PI3K dual phosphorylation of WM266-4 cells; assay: MAPK-Akt flow cytometry assay; format: cell-based, human; settings: 48 h, 25 μM
# Experimental: WM266-4 cells were seeded at 250,000 cells/well in E-MEM medium supplemented with 10% FBS and 1% penicillin/streptomycin in 6 well plates (Greiner Bio-One CellStar cat #655180) and allowed to adhere overnight. After incubation cells were treated with control (25 μM dabrafenib+25 μM trametinib), and 25 μM 2155-14 and 18 for 24 and 48 hours. Manufacturer's instructions for Muse™ PI3K/MAPK Dual Pathway Activation kit (EMD Millipore MCH200108) were followed. Cells were harvested, washed with PBS, and re-suspended in 1× assay buffer supplemented with fixation buffer and incubated on ice for 10 min. Cells were permeabilized with permeablization buffer supplied with the kit and incubated with an antibody cocktail (5 μL of Anti-Akt/PKB+5 μL of Anti-phospho-Akt). Cells were analyzed on Muse flow cytometer (EMD Millipore) using PI3K/MAPK Dual Pathway sub-routine.
# [3] = test system: caspase 8 in WM266-4 cells; assay: Caspase 8 activity assay; format: cell-based, human; settings: 0 and 4 h
# Experimental: (§2) WM266-4 and M14 cells were plated in 384-well plates in 5 μL of complete media (EMEM and RPMI-1640, respectively). 5 μL of 200 μM 2155-14 and 2155-18 were added to the cells. Plates were incubated at 37° C., 5% CO2 and 95% relative humidity for various lengths of time. After incubation, 5 μL of caspase 3/7, caspase 8, and caspase 9 Glo® reagent (Promega cat #: G7570) were added to each well, and incubated for 15 min at room temperature. Luminescence was recorded using a Biotek Synergy H4 multimode microplate reader.
# [4] = test system: caspase 9 in WM266-4 cells; assay: Caspase 9 activity assay; format: cell-based, human; settings: 0 and 4 h
# Experimental: as §2
# WM266-4 cells = assay: Cell staining for autophagy (autophagosome dye); format: cell-based, human; settings: for autophagy staining: 100 μM; for autophagy staining / morphology of unstained cells: 4 and 24 h; for morphology of unstained cells: bright field
# Experimental: WM266-4 cells were seeded at 10,000 cells/well in 0.1 mL of E-MEM medium supplemented with 10% FBS and 1% penicillin/streptomycin in 96 well plates (Greiner Bio-One CellStar cat #655180) and allowed to adhere overnight. After overnight incubation 100 μM 2155-14, 2155-18, 50 nM hnRNPH2 siRNA or 25 μM 2476-67.2 were added and incubated for various length of time. Cells were rinsed with warm PBS and stained with CYTO-ID® 1.0 Autophagy reagent (Enzo ENZ-51031-0050) and counterstained with DAPI. Cells were imaged using Cytation 5 imager (Biotek Inc, Winooski, Vt.) using GFP and DAPI filter sets. For % autophagic cells calculations cell counts were conducted using DAPI-stained nuclei and Object Sum Area value was obtained from at least 1,000 cells/well using DAPI channels. To obtain number of cells undergoing autophagy the cell count was conducted using GFP channel. Both GFP and DAPI cell counts were conducted using optimized algorithm in automatic mode. 8 replicate wells were used. % autophagic cells was calculated using Equation 1:% autophagic cells=100%*(number of cells, GFP channenumber of cells, DAPI channel)
# To calculate staining intensity, the Object Sum Area value from GFP channel was obtained and divided by number of cells using DAPI channel. Both GFP and DAPI cell counts were conducted using optimized algorithm in automatic mode. 3 replicate wells were used.
# [5] = test system: LC3-II and beclin-1 in WM266-4 cells; assay: Western blotting for LC3 and beclin-1, WM266-4; format: cell-based, human; settings: for LC3 and beclin-1, early time point: 30 min, 5-50 μM
# Experimental: 1×10^6 of WM266-4 or M14 cells were seeded in 3 mL of E-MEM or RPMI-1640 medium supplemented with 10% FBS and 1% penicillin/streptomycin in 6 cm plates. […] After washing with TBST, the membranes were treated with chemilumiscent horseradish peroxidase detection reagent (Thermo Scientific, Cat #32209) and exposed to autoradiography film (Denville Scientific, Inc., Metuchen, N.J., USA, cat #E3018). ImageJ software (NIH, Bethesda, Md.) was used to quantify the intensity of proteins bands. The protein bands were normalized against loading controls (β-actin) and expressed as a fold of an untreated control.
compound,measurement,setting,value
"O=C1NC[C@H](Cc2ccccc2)N(C[C@@H]2CCCN2C[C@@H](CC2CCCCC2)N2C[C@H](Cc3ccc(O)cc3)N(CCc3ccccc3)C(=O)C2=O)C1=O [Compound 2155-14, (S)-1((R)-1((S)-2-(((S)-6-benzyl-2,3-dioxopiperazin-1-yl)methyl)pyrrolidin-1-yl)-3-cyclohexylpropan-2-yl)-5-(4-hydroxybenzyl)-4-phenethylpiperazine-2,3-dione]",inhibition of M14 cell viability at highest concentration,M14 cells; 100 μM,not able to fully inhibit
same,IC50,"M14 cells; individual compounds, read-out: IC50 for M14 cells",3.6 ± 0.3 µM
same,IC50,"[1]; Homo sapiens, A549",> 100 µM
same,IC50,"CHO-K1 cells; Cricetulus griseus, CHO-K1",> 100 µM
same,selectivity against MDA-MB-231 cell line,MDA-MB-231 cell line,selective
same,PI3K-activated cells,[2],absence of PI3K activation
same,cells with single pathway activation,[2],not significantly affected
same,decrease of cell population with dual pathway activation vs untreated control,[2],~20%
same,increase of cells where both pathways were inactive,[2],approximately 10%
same,caspase 8 signal vs untreated control,[3],significantly different from untreated control cells
same,caspase 9 signal vs untreated control,[4],significantly different from untreated control cells
same,autophagy staining,WM266-4 cells,stained positive for autophagy as early as 4 h after compound addition; also recorded: At 24 h the intensity of autophagy staining increased; also recorded: stain positive for autophagy at 4 h
same,morphology of unstained cells,WM266-4 cells,exhibited traits of apoptosis; also recorded: extensive cell death
same,cells undergoing autophagy,"WM266-4 cells; quantitation of representative image, FIG. 18D",57%
same,"LC3 and beclin-1, early time point",[5],autophagy potentiation as compared to the untreated control was not observed; also recorded: No statistical significance between untreated control and test conditions
same,"LC3-II level, WM266-4","[5]; 24 h, 5-200 μM",Dose dependent increase
same,"beclin-1 level, WM266-4","[5]; 24 h, 5-200 μM",Dose dependent increase
"O=C1NC[C@H](Cc2ccccc2)N(C[C@@H]2CCCN2C[C@H](Cc2ccccc2)N2C[C@H](Cc3ccc(O)cc3)N(CCC34CC5CC(CC(C5)C3)C4)C(=O)C2=O)C1=O [Compound 2155-18, (S)-4-(2-(adamantan-1yl)ethyl)-1-((S)-1-((S)-2-(((S)-6-benzyl-2,3-dioxopiperazin-1-yl)methyl)pyrrolidin-1-yl)-3-phenylpropan-2-yl)-5-(4-hydroxybenzyl)piperazine-2,3-dione]",IC50,M14 cells; read-out: IC50 for M14,0.745 ± 0.06 µM
same,activity towards M14 cells,M14 cells; individual compounds,improved activity
same,activity towards A549 cells,[1],improved activity
same,selectivity over CHO-K1 healthy control cells,CHO-K1 cells,maintaining selectivity for CHO-K1 cells
same,selectivity against MDA-MB-231 cell line,MDA-MB-231 cell line,selective
same,effect on MAPK/PI3K cell populations,[2],no effect on either cell population
same,caspase 8 signal vs untreated control,[3],significantly different from untreated control cells
same,caspase 9 signal vs untreated control,[4],significantly different from untreated control cells
same,autophagy staining,WM266-4 cells,did not stain positive for autophagy
same,morphology of unstained cells,WM266-4 cells,exhibited traits of apoptosis; also recorded: less pronounced than 2155-14
same,"LC3 and beclin-1, early time point",[5],No statistical significance between untreated control and test conditions
same,"LC3-II level, WM266-4","[5]; 24 h, 5-200 μM",dose dependent inhibitory effect on basal autophagy
